Values quoted from earlier work in patent US20210330900A1, “TARGETED ADMINISTRATION TO THE OROPHARYNX OF VISCOUS OR DRY POWDER FLUTICASONE PROPIONATE AND RELATED CORTICOSTEROIDS FOR THE TREATMENT OF EOSINOPHILIC ESOPHAGITIS (EoE)” (Topical Sinus Therapeutics, Inc., priority 2020, published 2021).

For C[C@@H]1C[C@H]2[C@@H]3C[C@H](F)C4=CC(=O)C=C[C@]4(C)[C@@]3(F)[C@@H](O)C[C@]2(C)[C@@]1(O)C(=O)SCF [Fluticasone], the gastrointestinal absorption (compared with other corticosteroids) is listed as “exceptionally low” and the “drug inactivated by 1st pass hepatic metabolism” value (into a single inactive metabolite, after gastrointestinal absorption) is listed as 99%.
